Drawing on patent US10285982B2, “3-(1H-pyrrolo[2,3-B]pyridin-2-yl)-1H-pyrazolo[3,4-C]pyridines and therapeutic uses thereof” (Samumed, LLC, priority 2015, dated 2019), this text covers EC50 and inhibition for nine molecules.

A word on the EC50: it is the concentration giving half of the maximal effect. Usually inhibition stands for the share of the control response that was lost under treatment.

Format in all cases: cell-based
One assay concerns IL-6 (THP-1 cells). Briefly: IL-6 inhibition in LPS-stimulated THP-1 cells (HTRF). The conditions noted are these: Homo sapiens; for EC50: IL-6 in THP-1 cells, LPS 500 ng/mL, 22 hours; for inhibition at 10 µM: given where EC50 >10 μM, IL-6, THP-1 cells, LPS, read-out: percent inhibition at 10 μM. The procedure, abridged: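 Readout is the 665/620 nm HTRF ratio for secreted IL-6, normalized to DMSO wells, with EC50 from a variable-slope four-parameter fit, or % inhibition at 10 μM when above 10 μM. Cells (1% FBS, 24 h beforehand) got compound for 2 h, then LPS 500 ng/mL for 22 h at 37° C; top dose 10 μM, 0.1% DMSO.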

The test system of assay [1] is primary human fibroblasts derived from IPF patients (LL29 cells) treated with TGF-β1. Nature of the assay: Inhibition of fibrotic process, αSMA staining in TGF-β1 treated LL29 fibroblasts. The conditions noted are these: Fibroblast; for EC50: 96 h, % αSMA positive LL29 cells, TGF-β1 20 ng/mL, 4 days; for inhibition at 10 µM: given where EC50 >10 μM, αSMA, LL29 cells, TGF-β1, read-out: percent inhibition at 10 μM. In short, it runs like this:
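EC50 values come from non-linear fits of the αSMA-positive percentage among SYTOX-excluded live cells, normalized to TGF-β1 plus DMSO controls, or appear as % inhibition at 10 μM when above 10 μM. Fibrosis was induced in IPF-derived LL29 fibroblasts by 20 ng/mL TGF-β1 over 4 days, with 1:2 compound dilutions from 10 μM.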

The subject of the next assay is SW480 colon cancer cells. Nature of the assay: Cell viability assay (CellTiter-Blue). The note with it: Homo sapiens, 96 h, four days; for inhibition at 10 µM: given where EC50 >10 μM, read-out: percent inhibition at 10 μM. In short, it runs like this:
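Resazurin reduction (Ex 560/Em 590 nm, ~3 h reagent incubation) served as the viability read-out after SW480 cells were treated for four days at 37 °C. Doses ran from 10 μM down to 0.0045 μM in eight 1:3 steps. Curves fitted non-linearly for EC50, else % inhibition at 10 μM reported.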
For orientation: The colour change of resazurin is a common sign of viable cells or microbes.

As to `O=C(Nc1cncc(-c2cc3c(-c4cc5c(-c6cccnc6)ccnc5[nH]4)n[nH]c3cn2)c1)c1ccccc1` [Compound 95, N-(5-(3-(4-(Pyridin-3-yl)-1H-pyrrolo[2,3-b]pyridin-2-yl)-1H-pyrazolo[3,4-c]pyridin-5-yl)pyridin-3-yl)benzamide], the concentration for a half-maximal effect (EC50) (in the assay on IL-6 (THP-1 cells); in assay [1]; in the assay with SW480 colon cancer cells) was greater than 10 µM each time. Moreover, the inhibition at 10 µM with IL-6 (THP-1 cells) stood at 31.8%; in assay [1] it was 0.8%; with SW480 colon cancer cells, 14.2%.
Take `CCCC(=O)Nc1cncc(-c2cc3c(-c4cc5c(-c6cc(F)cc(NCCN(C)C)c6)ccnc5[nH]4)n[nH]c3cn2)c1` [Compound 465, N-(5-(3-(4-(3-((2-(Dimethylamino)ethyl)amino)-5-fluorophenyl)-1H-pyrrolo [2,3-b]pyridin-2-yl)-1H-pyrazolo[3,4-c]pyridin-5-yl)pyridin-3-yl)butyramide]: the concentration giving a half-maximal response (EC50) (in the assay on IL-6 (THP-1 cells); in assay [1]; in the assay on SW480 colon cancer cells) was greater than 10 µM each time. Moreover, the inhibition at 10 µM in the assay on IL-6 (THP-1 cells) is 21.5%; in assay [1], 43%; in the assay on SW480 colon cancer cells it was 10.6%.
Consider `CC(C)CC(=O)Nc1cncc(-c2cc3c(-c4cc5c(-c6ccc(F)cc6)ccnc5[nH]4)n[nH]c3cn2)c1` [Compound 30, N-(5-(3-(4-(4-Fluorophenyl)-1H-pyrrolo[2,3-b]pyridin-2-yl)-1H-pyrazolo [3,4-c]pyridin-5-yl)pyridin-3-yl)-3-methylbutanamide], for which the EC50 is greater than 10 µM with IL-6 (THP-1 cells), 0.82 µM in assay [1] and 2.47 µM in the assay with SW480 colon cancer cells. Moreover, the inhibition at 10 µM with IL-6 (THP-1 cells) was 35.6%.
With `c1cncc(-c2ccnc3[nH]c(-c4n[nH]c5cnc(-c6cncnc6)cc45)cc23)c1` [Compound 111, 3-(4-(Pyridin-3-yl)-1H-pyrrolo[2,3-b]pyridin-2-yl)-5-(pyrimidin-5-yl)-1H-pyrazolo[3,4-c]pyridine], the EC50 (in the assay on IL-6 (THP-1 cells); in assay [1]; in the assay with SW480 colon cancer cells) was greater than 10 µM in each case. In addition, the inhibition at 10 µM in the assay on IL-6 (THP-1 cells) came to 37.4%; in assay [1] it was 1.4%; in the assay with SW480 colon cancer cells, 17.3%.
`Fc1cccc(-c2ccnc3[nH]c(-c4n[nH]c5cnc(-c6cncc(OCc7ccccc7)c6)cc45)cc23)c1` [Compound 518, 5-(5-(Benzyloxy)pyridin-3-yl)-3-(4-(3-fluorophenyl)-1H-pyrrolo[2,3-b]pyridin-2-yl)-1H-pyrazolo[3,4-c]pyridine]: the EC50 (in the assay on IL-6 (THP-1 cells); in assay [1]; in the assay on SW480 colon cancer cells) was greater than 10 µM each time. Moreover, the inhibition at 10 µM in the assay with IL-6 (THP-1 cells) stood at 0%; in assay [1], 27.5%; with SW480 colon cancer cells, 41.5%.
With `Fc1cccc(-c2ccnc3[nH]c(-c4n[nH]c5cnc(-c6cncc(CN7CCCC7)c6)cc45)cc23)c1` [Compound 14, 3-(4-(3-Fluorophenyl)-1H-pyrrolo[2,3-b]pyridin-2-yl)-5-(5-(pyrrolidin-1-ylmethyl)pyridin-3-yl)-1H-pyrazolo[3,4-c]pyridine], the results for the concentration for a half-maximal effect (EC50) (in the assay on IL-6 (THP-1 cells); in assay [1]; in the assay with SW480 colon cancer cells) were greater than 10 µM, 3.53 µM and greater than 10 µM, respectively. Also, the inhibition at 10 µM came to 21.6% in the assay on IL-6 (THP-1 cells) and 13.3% in the assay on SW480 colon cancer cells.
As to `c1cc(N2CCCCC2)c2cc(-c3n[nH]c4cnc(C5CCNCC5)cc34)[nH]c2n1` [Compound 601, 3-(4-(Piperidin-1-yl)-1H-pyrrolo[2,3-b]pyridin-2-yl)-5-(piperidin-4-yl)-1H-pyrazolo[3,4-c]pyridine], the EC50 (in the assay with IL-6 (THP-1 cells); in assay [1]; with SW480 colon cancer cells) was greater than 10 µM throughout. Moreover, the values for the inhibition at 10 µM (in the assay on IL-6 (THP-1 cells); in assay [1]; with SW480 colon cancer cells) were 3%, 13% and 12%, respectively.
In the case of `O=C(Nc1cncc(-c2cc3c(-c4cc5c(-c6cccc(F)c6)ccnc5[nH]4)n[nH]c3cn2)c1)c1ccccc1` [Compound 11, N-(5-(3-(4-(3-Fluorophenyl)-1H-pyrrolo[2,3-b]pyridin-2-yl)-1H-pyrazolo [3,4-c]pyridin-5-yl)pyridin-3-yl)benzamide], the EC50 in the assay on IL-6 (THP-1 cells) is greater than 10 µM; in assay [1], 4.21 µM; in the assay with SW480 colon cancer cells it was greater than 10 µM. For the same molecule, the inhibition at 10 µM with IL-6 (THP-1 cells) was found to be 38.9%; in the assay with SW480 colon cancer cells, 46.8%.
As for `CCNCc1cncc(-c2cc3c(-c4cc5c(-c6cccnc6)ccnc5[nH]4)n[nH]c3cn2)c1` [Compound 90, N-((5-(3-(4-(Pyridin-3-yl)-1H-pyrrolo[2,3-b]pyridin-2-yl)-1H-pyrazolo[3,4-c]pyridin-5-yl)pyridin-3-yl)methyl)ethanamine], the values for the EC50 (in the assay with IL-6 (THP-1 cells); in assay [1]; in the assay with SW480 colon cancer cells) were greater than 10 µM, 1.63 µM and greater than 10 µM, respectively. The inhibition at 10 µM came out at 33.9% with IL-6 (THP-1 cells) and 16% with SW480 colon cancer cells.
